US5707987A, “Carbapenem derivatives” (Banyu Pharmaceutical Co., Ltd., priority 1994, dated 1998)
≈ marks a conversion by molar mass, not a printed value. Like-named read-outs stand apart in the source and are kept apart here.

Experiments:
[1] = cited from earlier work
[2] = tested on: highly methicillin-resistant Staphylococcus aureus resistant to imipenem and imipenem-resistant Pseudomonas aeruginosa; settings: background statement; cited from earlier work
β-lactamase = settings: background statement; cited from earlier work
DHP-I [3] = format: in vitro ADME; settings: ratio to imipenem (=1.0); the smaller the value, the higher the stability
Excerpt: Further, the DHP-I susceptibility was quantitatively analyzed by the method by Kropp et al., Antimicrob. Agents Chemother., vol. 22, pp. 62-70 (1982), whereby the smaller the numerical value representing the ratio to imipenem (=1.0), the higher the stability.
The DHP-1 susceptibility of the compounds of the present invention were compared with imipenem.

kidney = settings: background statement; cited from earlier work
DHP-I [4] = settings: background statement; cited from earlier work
S. aureus BB5939 = assay: In vitro antibacterial activity, agar plate dilution method (MIC); format: cell-based; settings: Staphylococcus aureus, read-out: Minimum Inhibitory Concentration (MIC)
Experimental: (§1) One platinum loopful of each test microorganism incubated overnight in Mueller Hinton broth, was inoculated to Mueller Hinton agar (inoculum size: 10^6 CFU/ml). Such culture media contained antibacterial agents in various concentrations. […] The minimum inhibitory concentrations of the compounds of the present invention were compared with imipenem.

S. aureus pMS520/Smith = assay: as above; format: cell-based; settings: Staphylococcus aureus, 16 h, read-out: Minimum Inhibitory Concentration (MIC)
Experimental: as §1

[5] = tested on: gram positive bacteria and gram negative bacteria; settings: background statement; cited from earlier work
[6] = tested on: renal dehydropeptidase I (DHP-I); settings: in vivo; cited from earlier work
[7] = background statement; cited from earlier work
[8] = S. aureus BB5939 (β-lactamase-producing bacterium per footnote), inoculum 10^6 CFU/ml, Mueller Hinton agar, 37° C., 16 hours

Row | Compound | DHP-I susceptibility (DHP-I [3]) | MIC (S. aureus pMS520/Smith) | MIC (S. aureus BB5939; [8]) | other results
1 | C[C@@H](O)[C@H]1C(=O)N2C(C(=O)O)=C(SCCN=CN)C[C@H]12 [Imipenem, (5R,6S)-3-[2-(formimidoylamino)ethylthie]-6-[(R)-1-hydroxyethyl]-7-oxo-1-azabicyclo[3.2.0]hept-2-en-2-carboxylic acid monohydrate] | 1.0 | > 25 µg/mL |  | stability in the solid form or in an aqueous solution ([1]; vs thienamycin): remarkably improved over thienamycin; treating effects against resistant bacteria [2]: does not show adequate treating effects against these resistant bacteria; β-lactamase resistance (β-lactamase): β-lactamase resistance; toxicity against the kidney (kidney): presents toxicity against the kidney; decomposition by DHP-I in the human kidney (DHP-I [4]): likely to be decomposed by DHP-I in the human kidney; MIC (S. aureus BB5939; BB5939, 16 h): 6.25 µg/mL; antibacterial activities [5]: antibacterial activities of an equal or higher level than thienamycin
2 | C[C@@H](O)[C@H]1C(=O)N2C(C(=O)O)=C(S[C@@H]3CN[C@H](COc4ccccc4)C3)[C@H](C)[C@H]12 [Example 128, (1R,5S,6S)-6-[(R)-1-Hydroxyethyl]-1-methyl-2-[(3S,5S)-5-(phenoxymethyl)pyrrolidin-3-ylthio]-1-carbapen-2-em-3-carboxylic acid] | 0.16 |  |  | 
3 | C=CCN1C[C@@H](SC2=C(C(=O)O)N3C(=O)[C@H]([C@@H](C)O)[C@H]3[C@H]2C)C[C@H]1Cc1cccc2ccccc12 [Example 137, (1R,5S,6S)-2-[(3S,5R)-N-Allyl-5-(1-naphthylmethyl)pyrrolidin-3-ylthio]-6-[(R)-1-hydroxyethyl]-1-methyl-1-carbapen-2-em-3-carboxylic acid] | < 0.05 |  |  | 
4 | C[C@@H](O)[C@H]1C(=O)N2C(C(=O)O)=C(S[C@@H]3CN[C@H](COc4ccc(CN)cc4)C3)[C@H](C)[C@H]12.Cl [Example 127, (1R,5S,6S)-2-[(3S,5S)-5-[4-(Aminomethyl)phenoxymethyl]-pyrrolidin-3-ylthio]-6-[(R)-1-hydroxyethyl]-1-methyl-1-carbapen-2-em-3-carboxylic acid monohydrochloride] | 0.15 | 3.13 µg/mL | 0.78 µg/mL | 
5 | C[C@@H](O)[C@H]1C(=O)N2C(C(=O)O)=C(SCCN)C[C@H]12 [thienamycin] |  |  |  | chemical stability ([1]; background statement): chemically unstable; decomposition by DHP-I in the human kidney (DHP-I [4]): likely to be decomposed by DHP-I in the human kidney; antibacterial activities [5]: excellent antibacterial spectrum and strong antibacterial activities; decomposition by renal dehydropeptidase I [6]: likely to be decomposed; recovery rate in the urine [7]: low
6 | C[C@@H](O)[C@H]1C(=O)N2C(C(=O)[O-])=C(S[C@@H]3CN[C@H](CSc4ccccc4)C3)[C@H](C)[C@H]12.[Na+] | 0.15 | 1.56 µg/mL |  | MIC (S. aureus BB5939; BB5939, 16 h): 0.39 µg/mL
7 | CN[C@H](CC(C)C)C(=O)N[C@H]1C(=O)N[C@@H](CC(N)=O)C(=O)N[C@H]2C(=O)N[C@H]3C(=O)N[C@H](C(=O)N[C@H](C(=O)O)c4cc(O)cc(O)c4-c4cc3ccc4O)[C@H](O)c3ccc(c(Cl)c3)Oc3cc2cc(c3O[C@@H]2O[C@H](CO)[C@@H](O)[C@H](O)[C@H]2O[C@H]2C[C@](C)(N)[C@H](O)[C@H](C)O2)Oc2ccc(cc2Cl)[C@H]1O [vancomycin] |  |  |  | toxicity against the kidney (kidney): strong toxicity
8 | C[C@@H](O)[C@H]1C(=O)N2C(C(=O)O)=C(S[C@@H]3CN[C@H](C(O)c4ccc(-c5ccc(CN)cc5)cc4)C3)[C@H](C)[C@H]12 (single isomer, unassigned; diastereomer i) [Example 140] | < 0.05 | 1.56 µg/mL (≈ 2.98 µM) | 0.78 µg/mL (≈ 1.49 µM) | 
9 | C[C@@H](O)[C@H]1C(=O)N2C(C(=O)O)=C(S[C@@H]3CN[C@H](CNc4ccc(CN)cc4)C3)[C@H](C)[C@H]12.Cl [Example 121, (1R,5S,6S)-2-[(3S,5S)-5-[4-(Aminomethyl)anilinomethyl]-pyrrolidin-3-ylthio]-6-[(R)-1-hydroxyethyl]-1-methyl-1-carbapen-2-em-3-carboxylic acid monohydrochloride] | 0.15 | 1.56 µg/mL | 0.39 µg/mL | 
10 | C[C@@H](O)[C@H]1C(=O)N2C(C(=O)O)=C(S[C@@H]3CN[C@H](Cc4ccc(CN)cc4)C3)[C@H](C)[C@H]12 [Example 131] | < 0.05 | 3.13 µg/mL (≈ 7.25 µM) | 0.78 µg/mL (≈ 1.81 µM) | 
